The subject of data set [1] is small cell lung cancer cell lines. Kind of data set: Cytotoxicity in 16 small cell lung cancer cell lines. Type of data set: cell-based, human. The text has this:
FIGS. 10A-10E show cytotoxicity of D8 (i.e., narciclasine) and several DNA-PK inhibitors (NU7441, M3814, CC-115, AZD7648) in 16 small cell lung cancer cell lines with high (black and gray bars) or low (white bars) c-MYC expression.
In this Example, Applicants examined the cytotoxic activity of narciclasine (i.e., D8) in comparison to DNA-PK inhibitors that are commercially available (including NU7441, M3814, CC-115, and AZD7648) in 16 small cell lung cancer cell lines. […] The IC50 values for narciclasine was less than 100 nM in all cell lines except NCI-H889.

Data set [2] has as its system NCI-H1048 xenograft. Kind of data set: In vivo xenograft activity, NCI-H1048. On the set-up: species or system mice. An excerpt:
FIGS. 13A-13I show in vivo xenograft activity of M3814, a DNA-PK inhibitor, and ABT-263, a BCL-2 inhibitor, in mice carrying H1048, a human small cell lung cancer cell line.
FIGS. 14A-14I show in vivo xenograft activity of D8 (narciclasine), a DNA-PK interaction inhibitor, and ABT-199, a BCL-2 inhibitor, in mice carrying H1048, a human small cell lung cancer cell line.
In vivo xenograft activity was examined for narciclasine or M3814 in combination with ABT-263 or ABT-199 in two xenograft models of small cell lung cancer, NCI-H1048 and NCI-H847.

Data set [3] relates to NCI-H847 xenograft. Briefly: In vivo xenograft activity, NCI-H847. The settings on record: NCI-H847 xenograft mice. The text has this: FIGS. […]
In NCI-H847 xenograft mice, narciclasine as a single agent extended the event-free survival of mice compared with vehicle control.

For data set [4], the system named is NCI-H82, NCI-H847, NCI-H889, NCI-H417 cells. Kind of data set: c-MYC, pOCT4S93 and apoptosis markers in small cell lung cancer cell lines. The class given is cell-based, human. The conditions noted are these: 0.3 to 2.5 μM, compared to vehicle control. Here is the method: FIG. 11 illustrates the effect of narciclasine in c-MYC protein expression. Narciclasine's effect on pOCT4S93 and OCT4 as well as apoptosis (measured by caspase and PARP cleavage) are also assessed in four small cell lung cancer cell lines with high c-MYC expression.
Compared to vehicle control, narciclasine reduced c-MYC and pOCT4S93 and cleaved PARP and caspase 3 in four small cell lung cancer cell lines (NCI-H82, NCI-H847, NCI-H889, NCI-H417) at the concentration range between 0.3 and 2.5 μM. These experimental results, which are summarized in FIG. 11, indicate that narciclasine induces apoptosis as a cell death mechanism in small cell lung cancer cells.

Data set [5] concerns MOLM-14 and NB4 cells. Briefly: c-MYC expression and apoptosis in MOLM-14 and NB4. Type of data set: cell-based, human. The conditions noted are these: 24 hours, 100 to 200 nM. The text has this: FIG. 17 provides data illustrating the effect of D8 (narciclasine) in the expression of c-MYC and apoptosis in two human acute myelogenous leukemia, MOLM-14 and NB4.
Of the six cell lines, two cell lines (MOLM-14 and NB4) were used to test the effect of narciclasine in c-MYC expression.

Data set [6] has as its system NCI-H1048 cell line. Briefly: Combination cytotoxicity with ABT-737 in NCI-H1048. The class given is cell-based, human. The conditions noted are these: combined with ABT-737, narciclasine 10 and 20 nM. How it is done:
(§1) FIGS. 12A-12F illustrate the combination cytotoxic activity of D8 (i.e., narciclasine) and ABT-737 (a BCL-2 inhibitor) in two small cell lung cancer cell lines. The effect of the combination on c-MYC, pOCT4, OCT4, cyclin A, BCL-2 family of proteins, the cleavage of and caspase-3 and PARP were evaluated.
(§2) Next, Applicants sought to check the activity of narciclasine when combined with other active agents. Venetoclax is currently indicated for chronic lymphocytic leukemia (CLL) and small lymphocytic lymphoma (SLL) patients. […] Thus, Applicants combined narciclasine with ABT-737/ABT-263, pan BCL-2 inhibitors or venetoclax (also known as ABT-199, a BCL-2 inhibitor) to examine the effect of the combination.

Data set [7] relates to small cell lung cancer cell lines. Briefly: Effect of combination with ABT-737 on c-MYC, cyclin A, PARP and caspase 3. The class given is cell-based, human. The conditions noted are these: combined with ABT-737. How it is done:
as §1, §2

Data set [8] relates to NCI-H847 cell line. Kind of data set: Combination cytotoxicity with ABT-737 in NCI-H847. Type of data set: cell-based, human. The settings on record: combined with ABT-737, narciclasine 10 and 20 nM. How it is done:
as §1, §2

Data set [9] concerns LHN-R, CHLA-20, COG-N-289, COG-N-334, COG-N-415 cells. Briefly: MK2 inhibitor effect on pOCT4, c-MYC, Cyclin A in neuroblastoma cell lines. Type of data set: cell-based, human. How it is done: FIGS. 8A-8H show higher pMK2 and pOCT4^S111 in PD with high c-MYC. […] CHLA-20 was used as the control for the two membranes. […] The values were normalized in two ways by the expression of specific proteins in CHLA-20 and GAPDH. […] The expression of pOCT4^S111, OCT4, c-MYC, and Cyclin A was evaluated in subcellular fractions. […] The cells transduced with a doxycycline-inducible system to exogenously express OCT4WT or OCT4 S111A mutant, treated with doxycycline (Dox) for 48h followed by cycloheximide (CHX) incubation for various times. The whole cell lysates were subjected to sill immunoblotting.
Thus, pMK2-mediated increased c-MYC expression is not limited to tumors exposed to 13-cisRA. When S111 residue of OCT4 was mutated pOCT4^S111 were not detected by immunoblotting (FIG. 8G). […] MK2 inhibition by a small molecule MK2 inhibitor results in decreased pOCT4.

The test system of data set [10] is SMS-LHN (LHN) cells. Kind of data set: 13-cisRA response of SMS-LHN neuroblastoma cells. Type of data set: cell-based, human. The conditions noted are these: 5 μM, initial response. The text has this:
(§3) FIGS. 4A and 4B provide data showing that protein expression of c-MYC and MYCN in patient-derived neuroblastoma cell lines established from clinical samples collected at diagnosis (Dx) (FIG. 4A) and progressive disease 5 (PD) (FIG. 4B). CHLA-20 and SK—N-BE(2) were used as the positive controls for c-MYC and MYCN. FIG. 4C1 and FIG. 4C2 show dot plots quantitating immunoblotting (IB) data in FIGS. 4A and 4B. The values were normalized in two ways by the intensity of specific proteins in CHLA-20 for c-MYC or SK—N-BE(2) for MYCN and GAPDH. […] Cells were treated with 5 μM 13-cisRA for 14 days. […] Triplicate samples of 10,000 events were collected as single cells for the analyses. […] Relative quantitation (2^−ΔΔCT) was used for the analyses of mRNA expression. […] LDH (cytosolic protein) and Lamin A/C (nuclear protein) were used as fractionation quality controls.
To determine whether increased c-MYC in PD cell lines might be due to 13-cisRA treatment, the SMS-LHN (LHN) human neuroblastoma cell line (MYCN expression without genomic amplification) was treated with a clinically achievable concentration of 13-cisRA (5 μM), following the clinical dosing schedule used in high-risk patients (2 wks on, 2 wks off, x 6 cycles).

Data set [11] has as its system LHN-R cells. Briefly: 13-cisRA response (neurite outgrowth, cell cycle) of resistant LHN-R cells. The class given is cell-based, human.
Excerpt: as §3
MetLuc enzymatic activity was measured. CMV immediate early promoter (pCMV IE) was a positive control. […] Left: Locations of the four sets of amplicons (a, b, c, and d) used to detect ChIP-enriched DNA fragments in the MYC enhancer region shown relative to the transcription start site (arrow). Right: PCR results detecting enriched fragments from ChIP assays of each of the 4 amplicons using ChIP-grade OCT4-1 and OCT4-2 antibodies or control normal rabbit IgG antibody. […] Cells were imaged by confocal microscopy. Blue: DAPI stained nucleus, Green: Phalloidin.
FIGS. 6A-6G show OCT4 interacting proteins by protein identification (ID) and post-translational modification (PTM) and verification of the protein expression and the role of the interacting MK2 protein in 13-cisRA resistance. […] M: Marker, C: cytosolic, N: nuclear. For protein ID, the entire lanes were analyzed, and for PTM, the specific OCT4 band was subjected to mass spectrometry analyses. (Right) OCT4 protein sequence with PTM status identified by mass spectrometry. Underline: mass spectrometry coverage, Green: not phosphorylated or acetylated, Red: phosphorylated, acetylated, or undetermined. […] The direct interaction between OCT4 and MK2 is also confirmed by Ni-NTA pull down (Middle) or immunoprecipitation by FLAG (Right) using purified proteins. […] Cells stably transduced with non-targeting NT-shRNA or MAPKAPK2-shRNA were treated with vehicle control or 13-cisRA for 14 days. […] Cells stably transduced with non-targeting NT-shRNA or MAPKAPK2-shRNA were treated with vehicle control or 13-cisRA for 14 days. […] Cells stably transduced with non-targeting NT-shRNA (20±2% vs 18±3%, 15 p=0.17) or MAPKAPK2-shRNA (19±4% vs 5±1%, p<0.01) were treated with vehicle control or 13-cisRA for 14 days.
In LHN-R treated with 13-cisRA, mRNA and protein expression of c-MYC was increased while MYCN remained suppressed (FIGS. 4F and 4G).
Thus, Applicants focused on OCT4 and generated a stable clone of LHN-R with POU5F1 knockdown using a lentiviral vector system by transducing five different short hairpin RNA sequences (POU5F1-shRNA-1 to -5) to evaluate the effect of OCT4 on 13-cisRA resistance in neuroblastoma cells. POU5F1 knockdown decreased c-MYC and Cyclin A protein expression in LHN-R cells (FIG. 5G) relative to a non-targeted control shRNA (NT-shRNA).

The mark [12] stands for this setting: single agent, compared with control, NCI-H1048 xenografted mice.

What is called IC50 is the concentration that inhibits the measured activity by half. A higher IC50 goes with weaker potency.

Each structure is given as a SMILES string.

Take `O=C1N[C@@H]2C(=C[C@H](O)[C@@H](O)[C@H]2O)c2cc3c(c(O)c21)OCO3` [narciclasine]: in data set [1] (all of 16 small cell lung cancer cell lines except NCI-H889), the half-maximal inhibitory concentration (IC50) was less than 0.1 µM. For the same compound, in data set [1] (compared with NU7441, M3814, CC-115, AZD7648), the “potency in cytotoxicity relative to the agents tested” value is reported as “highest potency”. Besides, the event-free survival entry is “significantly extended” in data set [2] (combined with ABT-199, NCI-H1048 xenografted mice); “did not affect” in data set [2] (setting [12]); “significantly longer” in data set [3] (combination with ABT-199, compared with the single agents); “extended” in [3] (single agent, compared with vehicle control). For the same compound, the “PARP and caspase 3 cleavage” value was “cleaved” in [4] and “observed” in [5]. Besides, the “c-MYC and pOCT4S93 expression” value in data set [4] is given as “reduced”. Besides, the c-MYC expression result in data set [5] is reported as “substantially decreased”. For the same compound, the combination cytotoxic activity entry in data set [6] and in data set [8] was “synergistic cytotoxic activity” throughout. Besides, in data set [7], the “c-MYC downregulation effect and cyclin A suppression effect” value was “higher”.

Consider `Cc1ccc(-c2ccc3c(ccc4sc5c(c43)NC[C@@H](C)NC5=O)n2)cn1` [PF3644022], for which, in data set [9], the “pOCT4, OCT4S111, c-MYC and Cyclin A” value is on record as “decreased”.

Turning to `COc1ccc([C@@H](O)c2cc(-c3ncnc4cc(N5CCOCC5)ccc34)c(F)cc2Cl)nn1` [M3814, alpha S-[2-chloro-4-fluoro-5-[7-(4-morpholinyl)-4-quinazolinyl]phenyl]-6-methoxy-3-pyridazinem ethano, reference compound], the event-free survival result in [2] (combined with ABT-263, NCI-H1048 xenografted mice) is on record as “significantly extended”; in [2] (setting [12]), “did not affect”. Moreover, the “c-MYC downregulation effect and cyclin A suppression effect” value in data set [7] is reported as “higher”.

Turning to `CC1=C(/C=C/C(C)=C/C=C/C(C)=C\C(=O)O)C(C)(C)CCC1` [13-cisRA, 13-cis-retinoic acid], in data set [10], the “response to 13-cisRA” value was “arrested proliferation, neurite outgrowth and decreased MYCN protein”. Besides, the “neurite outgrowth and cell cycle arrest” value in [11] (LHN-R after six cycles, 10 days of 13-cisRA treatment) is “did not show”. For the same compound, the “cell cycle analysis (FIG. 6G)” value in [11] (MAPKAPK2-shRNA LHN-R, 13-cisRA 14 days (vehicle 19±4%)) came to 5±1%; in data set [11] (NT-shRNA LHN-R, 13-cisRA 14 days (vehicle 20±2%)), 18±3%. Further, the S-phase content in data set [11] (NT-shRNA-transduced LHN-R, 13-cisRA 14 days (vehicle 26±3%)) is given as 28±5%; in [11] (POU5F1 knockdown LHN-R, 13-cisRA 14 days (vehicle 23±4%)), 11±1%.

These data come from patent US12491191B2, “Inhibition of interaction between OCT4 and MAPKAPK2 or DNA-PKcs to regulate c-MYC in cancer” (Texas Tech University System, priority 2019, dated 2025).
